# US10682408B2, “Localized immunosuppression of allografts for peripheral nerve repair” (UNIVERSITY OF WYOMING, priority 2016, dated 2020)
# System: DRGs, motor neurons, and Schwann cells
# Assay: Alamar blue viability assay of PN cells cultured 72 hours with immunosuppressive drugs
# Conditions: 72 hours culture, max 1% DMSO
# Description: It is contemplated that delivery of immunosuppressive agents function within a favorable therapeutic window. PNs are comprised of three major nervous system cell types, motor neurons, sensory neurons, and Schwann cells. […] FIG. 1B illustrates data regarding the toxicity of tacrolimus to DRGs, motor neurons, and Schwann cells. FIG. 1C illustrates data regarding the toxicity of prednisolone to DRGs, motor neurons, and Schwann cells.
# Cells (DRGs, motor neurons, and Schwann cells) were cultured for 72 hours in various concentration of the immunosuppressive drugs and viability was evaluated using the Alamar blue viability assay. ISV's were diluted into media using a maximum of 1% dimethylsulfoxide (DMSO).
# Biological material from Sprague Dawley (GFP− and GFP+) and Lewis rats, without any pathological conditions, were utilized to determine the PN allograft methods and materials described herein. Lewis rats were obtained from Charles River Laboratories (Wilmington, Mass.) and Sprague Dawley rats were obtained from Rat Resource and Research Center (Columbia, Mo.). Alzet osmotic pumps (model 1004), commercially available from DURECT Corporation, Cupertino, Calif., were utilized for delivery of immunosuppressive agents to PN allografts.
structure (smiles),measurement,value
C[C@]12C=CC(=O)C=C1CC[C@@H]1[C@@H]2[C@@H](O)C[C@@]2(C)[C@H]1CC[C@]2(O)C(=O)CO [prednisolone],dose tolerated by the cells (up to),up to 200 μM
